The record followed here is patent US10758534B2 (Vertex Pharmaceuticals Incorporated, priority 2014, dated 2020).

The target of this assay is T1, F508del (Homo sapiens, UniProt P13569, DEL508-508).
T1 construct: expressed in transfected cells
As to the kind of experiment: Protocol 2: FRET membrane potential optical assay (VIPR), identification of correction compounds. It is filed as cell-based. In short, it runs like this:
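FRET read-out (CC2-DMPE donor, DiSBAC2(3) voltage-sensitive acceptor) of membrane depolarization on VIPR II. Corrector candidates incubated 16 hrs at 37° C. with NIH3T3 cells expressing F508del; temperature correction at 27° C. as positive control; stimulation by 10 μM forskolin, 20 μM genistein, chloride-free gluconate bath.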

The mark [1] stands for this setting: Table 3, compounds of Table 1 as modulators of CFTR activity, protocol not stated.
Setting [2] is: F508del CFTR modulator activity, compounds of Table 1, read-out: EC30.

Molecules are shown by their SMILES. Read-outs that look alike come from different tables or passages of the source.

T1 sequence (P13569 with tags, fused parts or gaps DEL508-508): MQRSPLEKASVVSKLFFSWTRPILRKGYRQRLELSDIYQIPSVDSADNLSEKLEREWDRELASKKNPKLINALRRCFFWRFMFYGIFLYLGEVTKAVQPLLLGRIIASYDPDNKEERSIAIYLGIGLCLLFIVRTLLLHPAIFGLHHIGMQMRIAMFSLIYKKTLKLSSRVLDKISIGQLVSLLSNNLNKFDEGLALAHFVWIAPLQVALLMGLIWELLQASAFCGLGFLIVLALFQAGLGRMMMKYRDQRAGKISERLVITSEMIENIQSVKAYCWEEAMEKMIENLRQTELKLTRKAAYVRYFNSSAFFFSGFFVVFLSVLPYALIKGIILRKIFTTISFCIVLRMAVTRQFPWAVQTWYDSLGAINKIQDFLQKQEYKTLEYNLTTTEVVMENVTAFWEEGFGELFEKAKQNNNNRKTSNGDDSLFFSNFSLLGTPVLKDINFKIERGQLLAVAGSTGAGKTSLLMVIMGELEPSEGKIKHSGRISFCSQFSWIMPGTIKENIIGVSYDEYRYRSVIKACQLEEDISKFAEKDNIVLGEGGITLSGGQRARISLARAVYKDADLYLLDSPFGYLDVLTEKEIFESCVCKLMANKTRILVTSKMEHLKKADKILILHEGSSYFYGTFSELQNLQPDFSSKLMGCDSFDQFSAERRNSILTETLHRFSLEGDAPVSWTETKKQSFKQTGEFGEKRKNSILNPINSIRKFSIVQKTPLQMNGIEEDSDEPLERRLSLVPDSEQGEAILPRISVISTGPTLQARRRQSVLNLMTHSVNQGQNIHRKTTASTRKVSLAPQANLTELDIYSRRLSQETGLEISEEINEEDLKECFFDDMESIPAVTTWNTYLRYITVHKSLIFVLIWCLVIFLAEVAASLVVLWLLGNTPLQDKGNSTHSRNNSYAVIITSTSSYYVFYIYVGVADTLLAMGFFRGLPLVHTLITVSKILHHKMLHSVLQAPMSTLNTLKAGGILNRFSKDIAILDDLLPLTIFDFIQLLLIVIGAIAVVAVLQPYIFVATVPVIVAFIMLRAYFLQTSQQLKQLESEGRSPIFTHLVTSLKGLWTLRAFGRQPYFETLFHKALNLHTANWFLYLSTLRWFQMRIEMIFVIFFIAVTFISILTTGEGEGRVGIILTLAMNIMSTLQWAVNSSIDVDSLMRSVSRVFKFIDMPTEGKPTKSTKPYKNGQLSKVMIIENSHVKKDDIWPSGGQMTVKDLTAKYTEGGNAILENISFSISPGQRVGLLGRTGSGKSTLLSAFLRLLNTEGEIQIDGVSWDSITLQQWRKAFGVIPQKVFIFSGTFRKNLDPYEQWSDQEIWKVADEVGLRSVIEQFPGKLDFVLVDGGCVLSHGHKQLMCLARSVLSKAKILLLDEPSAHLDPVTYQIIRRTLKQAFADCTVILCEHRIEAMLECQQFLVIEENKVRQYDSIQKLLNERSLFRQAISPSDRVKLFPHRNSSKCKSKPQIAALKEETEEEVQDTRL

Turning to `CCCN(CC1CC1)c1nc(-c2ccc(OC(C)C)nc2)ccc1C(=O)NS(=O)(=O)c1cccc(N)n1` [Compound 500, N-[(6-amino-2-pyridyl)sulfonyl]-2-[cyclopropylmethyl(propyl)amino]-6-(6-isopropoxy-3-pyridyl)pyridine-3-carboxamide], the concentration for an effect of 30% (EC30) (in general, the point of the concentration-response curve where the effect stands at 30%) under setting [1] was “+++ (“+++” means <3 uM)”.
As to `COc1cccc2c1cc(C(=O)NS(=O)(=O)c1ccccc1)n2Cc1c(C)cc(C)cc1C` [Compound 348, N-(benzenesulfonyl)-4-methoxy-1-[(2,4,6-trimethylphenyl)methyl]indole-2-carboxamide], the EC30 entry under setting [1] is listed as “+++ (“+++” means <3 uM)”.
On the same count and under the same terms, for `CC(C)Oc1ccc(-c2ccc(C(=O)NS(=O)(=O)c3ccc[nH]c3=O)c(N3C[C@H](C)CC3(C)C)n2)cn1` [Compound 403, 6-(6-isopropoxy-3-pyridyl)-N-[(2-oxo-1H-pyridin-3-yl)sulfonyl]-2-[(4R)-2,2,4-trimethylpyrrolidin-1-yl]pyridine-3-carboxamide] the value was “++ (“++” means between 3 uM and 10 uM)”.
For `CC(C)COc1cc(F)cc(-c2ccc(C(=O)NS(=O)(=O)N3CC(C)(O)C3)c(N3C[C@@H](C)CC3(C)C)n2)c1` [Compound 2398, 6-(3-fluoro-5-isobutoxy-phenyl)-N-(3-hydroxy-3-methyl-azetidin-1-yl)sulfonyl-2-[(4S)-2,2,4-trimethylpyrrolidin-1-yl]pyridine-3-carboxamide], the EC30 under setting [2] is less than 3 µM.
As to `Cc1cc(C)c(Cn2nc(C(C)(C)C)cc2C(=O)NS(=O)(=O)c2ccccc2)c(C)c1` [Compound 45, N-(benzenesulfonyl)-5-tert-butyl-2-[(2,4,6-trimethylphenyl)methyl]pyrazole-3-carboxamide], under setting [1], the 30% effect concentration (EC30) entry is listed as “+++ (“+++” means <3 uM)”.
With `Cc1cc(-c2ccc(C(=O)NS(=O)(=O)c3cccc(N)n3)c(N3C[C@@H](C)CC3(C)C)n2)ccc1OC(F)F` [Compound 2543, N-[(6-amino-2-pyridyl)sulfonyl]-6-[4-(difluoromethoxy)-3-methyl-phenyl]-2-[(4S)-2,2,4-trimethylpyrrolidin-1-yl]pyridine-3-carboxamide], under setting [2], the EC30 is less than 3 µM.
Regarding `Cc1cc(C)c(Oc2nc(-c3cc(F)cc(OC(C)C)c3)ccc2C(=O)NS(=O)(=O)c2ccc[nH]c2=O)c(C)c1` [Compound 645, 6-(3-fluoro-5-isopropoxy-phenyl)-N-[(2-oxo-1H-pyridin-3-yl)sulfonyl]-2-(2,4,6-trimethylphenoxy)pyridine-3-carboxamide], the EC30 entry under setting [1] is “++ (“++” means between 3 uM and 10 uM)”.
On to `CC1CN(c2ncccc2C(=O)NS(=O)(=O)c2cccc(Nc3c(F)cccc3F)n2)C(C)(C)C1` (centres unmarked) [Compound 2513, N—[[6-(2,6-difluoroanilino)-2-pyridyl]sulfonyl]-2-(2,2,4-trimethylpyrrolidin-1-yl)pyridine-3-carboxamide], for which the EC30 under setting [2] was in the range of 3 to 10 µM.
Still for that read-out and setting: for `C[C@@H]1CN(c2nc(C3CCCCO3)ccc2C(=O)NS(=O)(=O)c2cccnc2N)C(C)(C)C1` (stereo partly drawn) [Compound 2351, N-[(2-amino-3-pyridyl)sulfonyl]-6-tetrahydropyran-2-yl-2-[(4S)-2,2,4-trimethylpyrrolidin-1-yl]pyridine-3-carboxamide] the value was less than 3 µM.
As to `CC(C)COc1ccc(-c2ccc(C(=O)NS(=O)(=O)c3cccc(N)n3)c(N3[C@H](C)CC[C@@H]3C)n2)cc1` [Compound 563, N-[(6-amino-2-pyridyl)sulfonyl]-2-[(2S,5R)-2,5-dimethylpyrrolidin-1-yl]-6-(4-isobutoxyphenyl)pyridine-3-carboxamide], the EC30 result under setting [1] is on record as “+++ (“+++” means <3 uM)”.
Take `CCOc1ccc(-c2ccc(C(=O)NS(=O)(=O)c3cccc(N)n3)c(Oc3c(C)cc(C)cc3C)n2)cc1F` [Compound 161, N-[(6-amino-2-pyridyl)sulfonyl]-6-(4-ethoxy-3-fluoro-phenyl)-2-(2,4,6-trimethylphenoxy)pyridine-3-carboxamide]: the EC30 entry under setting [1] is listed as “+++ (“+++” means <3 uM)”.
As for `COc1cc(-c2ccc(C(=O)NS(=O)(=O)c3cccnc3N)c(N3C[C@@H](C)CC3(C)C)n2)ccn1` [Compound 2646, N-[(2-amino-3-pyridyl)sulfonyl]-6-(2-methoxy-4-pyridyl)-2-[(4S)-2,2,4-trimethylpyrrolidin-1-yl]pyridine-3-carboxamide], the 30% effect concentration (EC30) under setting [2] is less than 3 µM.
`Cc1cc(C)c(Cn2c(C(=O)NS(=O)(=O)c3ccccc3)cc3c(Cl)cccc32)c(C)c1` [Compound 127, N-(benzenesulfonyl)-4-chloro-1-[(2,4,6-trimethylphenyl)methyl]indole-2-carboxamide]: the EC30 entry under setting [1] is “+++ (“+++” means <3 uM)”.
`CC(C)COc1cc(F)cc(-c2ccc(C(=O)NS(=O)(=O)c3cccc(N)n3)c(N3C[C@@H](C)CC3(C)C)n2)c1` [Compound 368, N-[(6-amino-2-pyridyl)sulfonyl]-6-(3-fluoro-5-isobutoxy-phenyl)-2-[(4S)-2,2,4-trimethylpyrrolidin-1-yl]pyridine-3-carboxamide]: the EC30 entry under setting [1] is reported as “+++ (“+++” means <3 uM)”.
`CC1CN(c2ncccc2C(=O)NS(=O)(=O)c2cccc(OCC(C)(C)n3cccc3)n2)C(C)(C)C1` (centres unmarked) [Compound 2137, N—[[6-(2-methyl-2-pyrrol-1-yl-propoxy)-2-pyridyl]sulfonyl]-2-(2,2,4-trimethylpyrrolidin-1-yl)pyridine-3-carboxamide]: the EC30 under setting [2] was less than 3 µM.
Same read-out and setting: for `CC1CN(c2ncccc2C(=O)NS(=O)(=O)c2cccc(NC3CCCCC3C)n2)C(C)(C)C1` (centres unmarked) [Compound 2218, N—[[6-[(2-methylcyclohexyl)amino]-2-pyridyl]sulfonyl]-2-(2,2,4-trimethylpyrrolidin-1-yl)pyridine-3-carboxamide] the value was less than 3 µM.
Turning to `CCc1cccc(S(=O)(=O)NC(=O)c2ccc(C(C)(C)C)nc2-c2ccc(C)cc2)c1` [Compound 50, 6-tert-butyl-N-(3-ethylphenyl)sulfonyl-2-(p-tolyl)pyridine-3-carboxamide], the EC30 result under setting [1] is “+++ (“+++” means <3 uM)”.
With `CC(C)COc1cc(F)cc(-c2ccc(C(=O)NS(=O)(=O)N3CC4CCC(C3)N4)c(N3C[C@@H](C)CC3(C)C)n2)c1` [Compound 2237, N-(3,8-diazabicyclo[3.2.1]octan-3-ylsulfonyl)-6-(3-fluoro-5-isobutoxy-phenyl)-2-[(4S)-2,2,4-trimethylpyrrolidin-1-yl]pyridine-3-carboxamide], under setting [2], the EC30 was less than 3 µM.
`Cc1c(F)cccc1-c1ccc(C(=O)NS(=O)(=O)c2ccc[nH]c2=O)c(N2C[C@@H](C)CC2(C)C)n1` [Compound 2491, 6-(3-fluoro-2-methyl-phenyl)-N-[(2-oxo-1H-pyridin-3-yl)sulfonyl]-2-[(4S)-2,2,4-trimethylpyrrolidin-1-yl]pyridine-3-carboxamide]: under setting [2], the EC30 was less than 3 µM.
Consider `CC(c1ccccc1)n1c(C(=O)NS(=O)(=O)c2ccncc2)cc2c(F)cccc21` (centres unmarked) [Compound 192, 4-fluoro-1-(1-phenylethyl)-N-(4-pyridylsulfonyl)indole-2-carboxamide], for which the EC30 result under setting [1] is “+++ (“+++” means <3 uM)”.
For the compound `CCCOCCNc1cccc(S(=O)(=O)NC(=O)c2cccnc2N2CC(C)CC2(C)C)n1` (centres unmarked) [Compound 2602, N—[[6-(2-propoxyethylamino)-2-pyridyl]sulfonyl]-2-(2,2,4-trimethylpyrrolidin-1-yl)pyridine-3-carboxamide], under setting [2], the concentration for an effect of 30% (EC30) was 3 to 10 µM.
Same read-out and setting: then `C[C@@H]1CN(c2nc([C@H]3CC[C@@H](C(F)(F)F)CC3)ccc2C(=O)NS(=O)(=O)c2ccc[nH]c2=O)C(C)(C)C1` [Compound 2315, N-[(2-oxo-1H-pyridin-3-yl)sulfonyl]-6-[4-(trifluoromethyl)cyclohexyl]-2-[(4S)-2,2,4-trimethylpyrrolidin-1-yl]pyridine-3-carboxamide], with less than 3 µM; and `Cc1cc(-c2ccc(C(=O)NS(=O)(=O)N3CC[C@H](N)C3)c(N3C[C@@H](C)CC3(C)C)n2)ccc1F` [Compound 2472, N-[(3S)-3-aminopyrrolidin-1-yl]sulfonyl-6-(4-fluoro-3-methyl-phenyl)-2-[(4S)-2,2,4-trimethylpyrrolidin-1-yl]pyridine-3-carboxamide], with 3 to 10 µM.
`CC1CN(c2ncccc2C(=O)NS(=O)(=O)c2cccc(Oc3ccc(N)cc3)n2)C(C)(C)C1` (centres unmarked) [Compound 2314, N—[[6-(4-aminophenoxy)-2-pyridyl]sulfonyl]-2-(2,2,4-trimethylpyrrolidin-1-yl)pyridine-3-carboxamide]: the EC30 under setting [2] fell in the range of 3 to 10 µM.
Still for that read-out and setting: for `CC1CN(c2ncccc2C(=O)NS(=O)(=O)c2cccc(Oc3ccc(Cl)cn3)n2)C(C)(C)C1` (centres unmarked) [Compound 2736] the value was 3 to 10 µM; for `CC1CN(c2ncccc2C(=O)NS(=O)(=O)c2cccc(Nc3c(F)cc(F)cc3F)n2)C(C)(C)C1` (centres unmarked) [Compound 2106, N—[[6-(2,4,6-trifluoroanilino)-2-pyridyl]sulfonyl]-2-(2,2,4-trimethylpyrrolidin-1-yl)pyridine-3-carboxamide], less than 3 µM.
Still for that read-out and setting: for `COc1cc(Cl)cc(-c2cnc(N3CC(C)CC3(C)C)c(C(=O)NS(=O)(=O)c3cccc(N)n3)c2)c1` (centres unmarked) [Compound 2545, N-[(6-amino-2-pyridyl)sulfonyl]-5-(3-chloro-5-methoxy-phenyl)-2-(2,2,4-trimethylpyrrolidin-1-yl)pyridine-3-carboxamide] the value was less than 3 µM.
As for `Cc1cc(C)c(Cn2c(C(=O)NS(=O)(=O)c3cccc(N)c3)cc3c(C)cccc32)c(C)c1` [Compound 144, N-(3-aminophenyl)sulfonyl-4-methyl-1-[(2,4,6-trimethylphenyl)methyl]indole-2-carboxamide], under setting [1], the 30% effect concentration (EC30) result is listed as “+++ (“+++” means <3 uM)”.
On the same count and under the same terms, then `CC(C)COc1cc(F)cc(-c2ccc(C(=O)NS(=O)(=O)c3cccc(=O)[nH]3)c(N3CCC(C)(C)CC3)n2)c1` [Compound 775, 2-(4,4-dimethyl-1-piperidyl)-6-(3-fluoro-5-isobutoxy-phenyl)-N-[(6-oxo-1H-pyridin-2-yl)sulfonyl]pyridine-3-carboxamide], with “+++ (“+++” means <3 uM)”.
